For 18 molecules, IC50 results are on record in US20260042764A1, “COMPOSITIONS AND METHODS FOR INHIBITION OF KRAS” (TheRas, Inc., priority 2022, published 2026).

SMILES strings stand for the structures.

Assay [1] concerns the target T1, Avi-KRAS WT (2-169) GTP/RAF1 RBD-3xFLAG (51-131) (Homo sapiens, UniProt P01116).
T1 construct: Avi-KRAS WT (2-169)
Description: Raf1-KRAS WT-GTP disruption HTRF assay (Biological Example 3). In kind it is binding. The conditions noted are these: KRAS WT, GTP-loaded. In outline:
(§1)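 Compounds were titrated 10-point, 3-fold from 30 μM against preformed KRAS-GTP:RAF1 RBD (51-131) complexes at 50 nM, using KRAS 2-169 as WT, G12C, G12D or G12V. After 1 h at room temperature in Tris pH 7.5 buffer with MgCl2 and 10% DMSO, time-resolved fluorescence was read. Results are percent activity versus DMSO.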
For orientation: Time-resolved FRET reads energy transfer from a long-lived donor to a nearby acceptor.

In assay [2] the target is T2, Avi-KRAS G12V (2-169) GTP/RAF1 RBD-3xFLAG (51-131) (Homo sapiens, UniProt P01116, G12V).
T2 construct: Avi-KRAS G12V (2-169)
T2 sequence (P01116 2-169 isoform P01116-2 G12V): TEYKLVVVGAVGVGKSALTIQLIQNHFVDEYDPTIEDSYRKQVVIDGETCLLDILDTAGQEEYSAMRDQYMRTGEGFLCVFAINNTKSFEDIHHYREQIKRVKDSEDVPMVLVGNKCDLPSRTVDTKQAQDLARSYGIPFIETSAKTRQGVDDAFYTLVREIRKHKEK
Description: Raf1-KRAS G12V-GTP disruption HTRF assay (Biological Example 3). As to conditions: KRAS G12V, GTP-loaded. It counts as binding. In short, it runs like this: as §1

For assay [3], the system named is GP2d cells (KRAS G12D). Description: Cell-based pERK HTRF assay in GP2d cell (Biological Example 2). The conditions noted are these: GP2d, GP2d (KRAS G12D) cells. In short, it runs like this: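 Cells grown in DMEM with 10% FBS were exposed to compound for 60 min at 0.25% DMSO, using a 9-point half-log series starting at 1 μM or 100 nM. Lysates were then mixed with d2 and Eu cryptate antibodies for 4–24 h at room temperature, and pERK was read by HTRF.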

In assay [4] the test system is SW620 cells (KRAS G12V). Description: Cell-based pERK HTRF assay in SW620 cell (Biological Example 4). The conditions noted are these: Homo sapiens, SW-620, SW620 (KRAS G12V) cells. In outline: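 SW620 cells were treated for 4 h with compound in a 9-point half-log series from 1 μM top (0.25% DMSO), then lysed. Phospho-ERK was detected by HTRF with d2 and Eu cryptate antibodies after 4–24 h at room temperature, read at 615 nm emission.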

Assay [5] has as its target T3, Avi-KRAS G12C (2-169) GTP/RAF1 RBD-3xFLAG (51-131) (Homo sapiens, UniProt P01116, G12C).
T3 construct: Avi-KRAS G12C (2-169)
Description: Raf1-KRAS G12C-GTP disruption HTRF assay (Biological Example 3). In kind it is binding. As to conditions: KRAS G12C, GTP-loaded. In short, it runs like this:
as §1

The target of assay [6] is T4, Avi-KRAS G12D (2-169) GTP/RAF1 RBD-3xFLAG (51-131) (Homo sapiens, UniProt P01116, G12D).
T4 construct: Avi-KRAS G12D (2-169)
T4 sequence (P01116 2-169 isoform P01116-2 G12D): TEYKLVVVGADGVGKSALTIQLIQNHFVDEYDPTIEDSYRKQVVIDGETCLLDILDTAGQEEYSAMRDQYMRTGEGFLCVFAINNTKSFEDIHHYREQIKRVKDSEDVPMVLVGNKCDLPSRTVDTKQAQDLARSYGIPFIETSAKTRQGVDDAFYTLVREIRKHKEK
In words: Raf1-KRAS G12D-GTP disruption HTRF assay (Biological Example 3). In kind it is binding. As to conditions: KRAS G12D, GTP-loaded. In outline: as §1

T1 sequence (P01116 2-169 isoform P01116-2): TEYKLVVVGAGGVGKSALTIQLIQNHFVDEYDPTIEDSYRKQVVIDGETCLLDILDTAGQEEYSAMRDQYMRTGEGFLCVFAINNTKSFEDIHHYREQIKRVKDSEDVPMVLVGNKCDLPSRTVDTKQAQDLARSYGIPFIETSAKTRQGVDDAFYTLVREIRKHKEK
T3 sequence (P01116 2-169 isoform P01116-2 G12C): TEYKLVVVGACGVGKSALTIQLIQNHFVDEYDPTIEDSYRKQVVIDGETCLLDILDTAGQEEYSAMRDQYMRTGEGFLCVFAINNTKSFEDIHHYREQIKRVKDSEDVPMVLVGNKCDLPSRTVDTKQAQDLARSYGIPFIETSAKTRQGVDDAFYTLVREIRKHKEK

A word on the IC50: it is the concentration that gives 50% inhibition. As for `CN(Cc1cccnn1)c1nc(OC[C@@]23CCCN2C[C@H](F)C3)nc2c(F)c(-c3ccc(F)c4sc(N)c(C#N)c34)c(C(F)(F)F)cc12` (atropisomer, axis not shown) [Compound 876], the IC50 in assay [1] was 1000 to 10000 nM; in assay [2] it was 100 to 1000 nM; in assay [3], less than 100 nM; in assay [4] it was less than 100 nM; in assay [5], 100 to 1000 nM; in assay [6], 100 to 1000 nM.
On to `CCN(c1nc(OC[C@@]23CCCN2C[C@H](F)C3)nc2c(F)c(-c3ccc(F)c4sc(N)c(C#N)c34)c(C(F)(F)F)cc12)[C@H]1C[C@@H]2COCC(=O)N2C1` (atropisomer, axis not shown) [Compound 878], for which the IC50 in assay [1] is 100 to 1000 nM; in assay [2], 100 to 1000 nM; in assay [3] it was less than 100 nM; in assay [4], less than 100 nM; in assay [5], 100 to 1000 nM; in assay [6] it was 100 to 1000 nM.
As for `CN(Cc1cccc(=O)n1C)c1nc(OC[C@@]23CCCN2C[C@H](F)C3)nc2c(F)c(-c3ccc(F)c4sc(N)c(C#N)c34)c(C(F)(F)F)cc12` (atropisomer, axis not shown) [Compound 879], the concentration for half-maximal inhibition (IC50) in assay [1] is more than 10000 nM; in assay [2], more than 10000 nM; in assay [3], less than 100 nM; in assay [4], less than 100 nM; in assay [5], more than 10000 nM; in assay [6], 1000 to 10000 nM.
`CCN(c1nc(OC[C@@]23CCCN2C[C@H](F)C3)nc2c(F)c(-c3ccc(F)c4sc(N)c(C#N)c34)c(C(F)(F)F)cc12)[C@H]1CC(=O)N2CCC[C@H]12` (atropisomer, axis not shown) [Compound 880]: the IC50 is 100 to 1000 nM in assay [1]; not above 100 nM in assay [2]; less than 100 nM in assay [3]; less than 100 nM in assay [4]; not above 100 nM in assay [5]; 100 to 1000 nM in assay [6].
As to `CCN(c1nc(OC[C@@]23CCCN2C[C@H](F)C3)nc2c(F)c(-c3ccc(F)c4sc(N)c(C#N)c34)c(C(F)(F)F)cc12)[C@H]1C[C@H]2COCC(=O)N2C1` (atropisomer, axis not shown) [Compound 882], the IC50 in assay [1] is 100 to 1000 nM; in assay [2], not above 100 nM; in assay [3], less than 100 nM; in assay [4], less than 100 nM; in assay [5] it was not above 100 nM; in assay [6] it was not above 100 nM.
In the case of `CN(Cc1ncco1)c1nc(OC[C@@]23CCCN2C[C@H](F)C3)nc2c(F)c(-c3ccc(F)c4sc(N)c(C#N)c34)c(C(F)(F)F)cc12` (atropisomer, axis not shown) [Compound 885], the IC50 in assay [1] is 1000 to 10000 nM; in assay [2] it was 100 to 1000 nM; in assay [3] it was less than 100 nM; in assay [4], less than 100 nM; in assay [5], 100 to 1000 nM; in assay [6], 100 to 1000 nM.
Turning to `CCN(c1nc(OC[C@@]23CCCN2C[C@H](F)C3)nc2c(F)c(-c3ccc(F)c4sc(N)c(C#N)c34)c(C(F)(F)F)cc12)[C@H]1CCN(C(=O)[C@@H]2CC2(F)F)[C@H]1C` (atropisomer, axis not shown) [Compound 887], the concentration for half-maximal inhibition (IC50) in assay [1] was 1000 to 10000 nM; in assay [2], 1000 to 10000 nM; in assay [3] it was less than 100 nM; in assay [4] it was 100 to 1000 nM; in assay [5], 1000 to 10000 nM; in assay [6], 1000 to 10000 nM.
On to `CCN(c1nc(OC[C@@]23CCCN2C[C@H](F)C3)nc2c(F)c(-c3ccc(F)c4sc(N)c(C#N)c34)c(C(F)(F)F)cc12)[C@H]1CCN(C(=O)[C@@H]2C[C@@H]2F)[C@@H]1C` (atropisomer, axis not shown) [Compound 889], for which the half-inhibitory concentration (IC50) in assay [1] was 100 to 1000 nM; in assay [2], 100 to 1000 nM; in assay [3] it was less than 100 nM; in assay [4], less than 100 nM; in assay [5] it was 100 to 1000 nM; in assay [6] it was 100 to 1000 nM.
As for `CN(Cc1ccccc1)c1nc(OC[C@@]23CCCN2C[C@H](F)C3)nc2c(F)c(-c3ccc(F)c4sc(N)c(C#N)c34)c(C(F)(F)F)cc12` (atropisomer, axis not shown) [Compound 890], the IC50 was more than 10000 nM in assay [1]; more than 10000 nM in assay [2]; 100 to 1000 nM in assay [3]; 100 to 1000 nM in assay [4]; more than 10000 nM in assay [5]; more than 10000 nM in assay [6].
For the molecule `CCN(c1nc(OC[C@@]23CCCN2C[C@H](F)C3)nc2c(F)c(-c3ccc(F)c4sc(N)c(C#N)c34)c(C(F)(F)F)cc12)[C@H]1C[C@H]2C[C@H](C)C(=O)N2C1` (atropisomer, axis not shown) [Compound 891], the IC50 was not above 100 nM in assay [1]; not above 100 nM in assay [2]; less than 100 nM in assay [3]; less than 100 nM in assay [4]; not above 100 nM in assay [5]; not above 100 nM in assay [6].
Regarding `CCN(c1nc(OC[C@@]23CCCN2C[C@H](F)C3)nc2c(F)c(-c3ccc(F)c4sc(N)c(C#N)c34)c(C(F)(F)F)cc12)[C@H]1CCN(C(=O)[C@@H]2C[C@H]2F)[C@@H]1C` (atropisomer, axis not shown) [Compound 892], the IC50 in assay [1] is 100 to 1000 nM; in assay [2] it was 100 to 1000 nM; in assay [3], less than 100 nM; in assay [4], less than 100 nM; in assay [5] it was 100 to 1000 nM; in assay [6] it was 100 to 1000 nM.
Turning to `CCN(c1nc(OC[C@@]23CCCN2C[C@H](F)C3)nc2c(F)c(-c3ccc(F)c4sc(N)c(C#N)c34)c(C(F)(F)F)cc12)[C@H]1CC[C@](C)(C(=O)N(C)C)C1` (atropisomer, axis not shown) [Compound 894], the IC50 in assay [1] is 1000 to 10000 nM; in assay [2], 1000 to 10000 nM; in assay [3] it was less than 100 nM; in assay [4] it was less than 100 nM; in assay [5], 1000 to 10000 nM; in assay [6] it was 1000 to 10000 nM.
On to `CN(Cc1ccnnc1)c1nc(OC[C@@]23CCCN2C[C@H](F)C3)nc2c(F)c(-c3ccc(F)c4sc(N)c(C#N)c34)c(C(F)(F)F)cc12` (atropisomer, axis not shown) [Compound 896], for which the IC50 in assay [1] was 1000 to 10000 nM; in assay [2] it was 1000 to 10000 nM; in assay [3], less than 100 nM; in assay [4], less than 100 nM; in assay [5], 1000 to 10000 nM; in assay [6], 100 to 1000 nM.
`CN(Cc1cncnc1)c1nc(OC[C@@]23CCCN2C[C@H](F)C3)nc2c(F)c(-c3ccc(F)c4sc(N)c(C#N)c34)c(C(F)(F)F)cc12` (atropisomer, axis not shown) [Compound 898]: the half-maximal inhibitory concentration (IC50) in assay [1] was 1000 to 10000 nM; in assay [2], 100 to 1000 nM; in assay [3] it was less than 100 nM; in assay [4] it was less than 100 nM; in assay [5] it was 1000 to 10000 nM; in assay [6], 100 to 1000 nM.
With `CCN(c1nc(OC[C@@]23CCCN2C[C@H](F)C3)nc2c(F)c(-c3ccc(F)c4sc(N)c(C#N)c34)c(C(F)(F)F)cc12)[C@H]1CCN(C(=O)c2coc(C)n2)[C@@H]1C` (atropisomer, axis not shown) [Compound 899], the IC50 in assay [1] was 100 to 1000 nM; in assay [2], 100 to 1000 nM; in assay [3], less than 100 nM; in assay [4] it was less than 100 nM; in assay [5], 100 to 1000 nM; in assay [6], 100 to 1000 nM.
As for `CCN(c1nc(OC[C@@]23CCCN2C[C@H](F)C3)nc2c(F)c(-c3ccc(F)c4sc(N)c(C#N)c34)c(C(F)(F)F)cc12)[C@H]1CCN(C(=O)c2cocn2)[C@@H]1C` (atropisomer, axis not shown) [Compound 900], the IC50 in assay [1] is 100 to 1000 nM; in assay [2], 100 to 1000 nM; in assay [3] it was less than 100 nM; in assay [4], less than 100 nM; in assay [5], 100 to 1000 nM; in assay [6] it was 100 to 1000 nM.
With `CCN(c1nc(OC[C@@]23CCCN2C[C@H](F)C3)nc2c(F)c(-c3ccc(F)c4sc(N)c(C#N)c34)c(C(F)(F)F)cc12)[C@H]1CCN(C(=O)c2ncoc2C)C1` (atropisomer, axis not shown) [Compound 901], the IC50 was 100 to 1000 nM in assay [1]; 100 to 1000 nM in assay [2]; less than 100 nM in assay [3]; less than 100 nM in assay [4]; 100 to 1000 nM in assay [5]; 100 to 1000 nM in assay [6].
With `CCN(c1nc(OC[C@@]23CCCN2C[C@H](F)C3)nc2c(F)c(-c3ccc(F)c4sc(N)c(C#N)c34)c(C(F)(F)F)cc12)[C@H]1CCN(C(=O)c2cnc(C)s2)C1` (atropisomer, axis not shown) [Compound 902], the IC50 was 100 to 1000 nM in assay [1]; not above 100 nM in assay [2]; less than 100 nM in assay [3]; less than 100 nM in assay [4]; 100 to 1000 nM in assay [5]; not above 100 nM in assay [6].
